Values of other authors in patent US20250339408A1, “TREATMENT AND PREVENTION OF BASAL CELL CARCINOMA WITH TOPICAL COMPOSITION COMPRISING PATIDEGIB” (Sol-Gel Technologies Ltd., priority 2023, published 2025).

Tested on: patients with Gorlin Syndrome
Conditions: oral drugs; with and without PTCH1 mutation; cited from earlier work

| Compound | Effect in patients with Gorlin Syndrome (in words) |
| --- | --- |
| Cc1c(C(=O)Nc2ccc(N3C[C@@H](C)O[C@@H](C)C3)nc2)cccc1-c1ccc(OC(F)(F)F)cc1 [Sonidegib] | known to effect patients with Gorlin Syndrome, both with and without PTCH1 mutation |
| CS(=O)(=O)c1ccc(C(=O)Nc2ccc(Cl)c(-c3ccccn3)c2)c(Cl)c1 [Vismodegib] | known to effect patients with Gorlin Syndrome, both with and without PTCH1 mutation |
